{
  "source": "paper PMC10290391",
  "about": "“Targeted degradation of ⍺-synuclein aggregates in Parkinson’s disease using the AUTOTAC technology” (Molecular Neurodegeneration, 2023)",
  "key": {"[1]": {"assay": "Pharmacokinetic study of ATC161 in male ICR mice", "format": "in vivo", "method": "Supplementary file 13024_2023_630_MOESM1_ESM.eps: Additional file 1: Supplementary figure 1. Drug profiles of ATL and Autotac compounds. A, drug profiles of ATL compounds. Tissue concentrations and oral bioavailability were measured in ICR male mice upon 5 mg/kg oral administration of each ATL compound. B, structures of ATC161~164. C, Pharmacokinetic study of ATC161 conducted in male ICR mice otherwise indicated. M.W. represents molecular weight. The plasma exposure and the half-life were determined upon either POor IPATC161 administration. The drug tissue exposure was determined in Tau301L BiFC mice. IV refers to intravenous injection."}, "[2]": {"test_system": "extracellular total α-syn", "assay": "ELISA of extracellular α-syn in conditioned media of SH-SY5Y α-syn A53T cells", "format": "cell-based, human", "method": "The conditioned medium was collected from differentiated SH-SY5Y cells infected with adenovirus overexpressing human α-syn. Following 24 h infection, the medium was replaced with fresh media containing DMSO or ATC161. The medium was collected after 24 h and centrifuged at 1,000 rpm to remove cell debris and dead cells. The supernatant was concentrated using Amicon 10 K MWCO filters (Millipore, Billerica, MA). The amounts of α-syn in conditioned medium were measured by enzyme-linked immunosorbent assay (ELISA) with an ELISA kit (Abcam, human α-syn ELISA kit, ab260052) following the provider’s instruction. The subsets of collected media were treated to fresh SH-SY5Y cells in order to determine the level of α-syn propagated to the fresh cells."}, "[3]": {"test_system": "α-syn PFF-injected mouse model", "format": "in vivo", "conditions": "10 mg/kg oral", "method": "Mice were anesthetized and perfused with PBS and 4% paraformaldehyde. Brains were sectioned at 30 μm thickness by vibratome (Leica). Free-floating sections were blocked with PBS containing 5% serum and 0.3% Triton X-100 for 1 h. The sections were then incubated with an anti-tyrosine hydroxylase (TH) antibody (1:5,000, Sigma, T1299) overnight at 4℃. The sections were incubated with biotinylated secondary antibody for 1 h at room temperature. The signal amplification was achieved by the ABC kit (Vector) followed by development with DAB (Vector). TH^+ optical density was measured in three brain sections per animal. Images of the ipsilateral and contralateral striatal area were obtained using an Axio scan Z1 slide scanner (Zeiss). Images were converted to grayscale via Image J, and the intensity was analyzed. Normalized values across the sections were used to compare the relative TH^+ optical density.\nIntrastriatal injection of α-syn fibrils was performed in C57BL6/J male mice at 8 weeks of age. 5 µg of α-syn fibrils were sonicated and injected into the dorsal striata in mice at the empirically derived coordinates: 1.0 mm anterior and 1.5 mm lateral to the Bregma, and 3.0 mm ventral relative to the skull in the course of 20 min. Scalp incisions were closed by suture. […]\nBrain sections were cut into 30 µm on a freezing microtome, and stored in tissue storage solution at -20 °C. Sections were washed with PBS and incubated with blocking buffer (2% normal goat serum, 1% BSA, 1% Triton X-100, and Tween-20 in PBS) for 1 h at room temperature. After washing with PBS, sections were incubated with primary antibodies (pS129-α-syn, GFAP) overnight at 4 °C, followed by secondary Goat anti-mouse AlexaFluor488 and Goat anti-rabbit AlexaFluor555 for 1 h at room temperature. Images were processed by Axio Scan Z1 (Carl Zeiss). In order to quantify the number of neurons in the PFF-injected striatum, the brain sections were stained with 0.1% crystal violet solution containing 0.1% acetic acid for 1 min at 50 ℃ and then rinsed in distilled water. Sections were dehydrated in 95% and 100% alcohol and mounted on slides.\nThe behavioral tests were performed according to IACUC approval (AUTOTAC Bio Inc., ATB-2107–06-1). The previously generated PFF-injected mouse model was used. For the forelimb grip strength test, a grip strength meter (Bioseb, BIO-GS3) was used. Three consecutive measurements were done for each mouse, and the average was calculated. For the motor coordination test, a rotarod (Bioseb, BX-ROD) was used. Each trial consisted of three attempts."}, "[4]": {"test_system": "insoluble α-syn species", "assay": "Triton X-100 fractionation assay in primary rat cortex neurons", "format": "cell-based", "method": "All procedures were conducted according to the IACUC and were approved by Seoul National University Institutional Animal Care and Use Committee. Rat cortex primary neuron were prepared from E16 Sprague–Dawley rat embryos (Orient Bio). Anesthetized […] were sacrificed by cervical dislocation, and embryos were removed. Cortices were dissected on the ice. Neurons were trypsinized, dissociated and plated onto poly-d-lysine coated cover slips at a density of 5 × 10^4 cells per cm^2 per 12-well plate or 6-well plate. Primary neurons were maintained in Neurobasal A medium containing 2% B27, 0.5 mM glutamax and antibiotics. Cells at 7 DIV were treated with h-α-syn PFF (1 µg/mL) for 14 d.\nFor the separation of Triton X-100 soluble and insoluble fractions for monitoring α-syn, cells were washed with PBS and lysed in Triton X-100 buffer (50 mM Tris / 150 mM NaCl / 100 mM EDTA / 1% Triton X-100, pH 7.6) containing protease and phosphatase inhibitors for 30 min on ice. The lysates were centrifuged at 12,000 rpm for 30 min, and the soluble supernatant was taken. The remaining pellets were washed with Triton X-100 buffer, followed by centrifugation at 12,000 rpm for 20 min. […] Immunoreactive bands were detected using ECL reagents (Thermo Fisher Scientific, 32,106). […] Densitometry of developed bands was analyzed with ImageJ (NIH, Bethesda)."}},
  "data": [
    {"smiles": "Fc1ccc(COc2cccc(CNCCOCCOCCNc3cccc(-c4cc(-c5ccc6c(c5)OCO6)n[nH]4)c3)c2)cc1", "note": "[ATC161, 3-(3-(benzo[d][1,3]dioxol-5-yl)-1H-pyrazol-5-yl)-N-(2-(2-(2-((3-((4-fluorobenzyl)oxy)benzyl)amino)ethoxy)ethoxy)ethyl)aniline]", "values": [
      {"measurement": "half-life", "setting": "[1]; male, ICR, oral, mouse plasma, read-out: terminal elimination half-life (T1/2) (converted)", "value": 3.7, "unit": "h"},
      {"measurement": "systemic exposure", "setting": "[1]; oral administration, mice", "value": 3299.3, "unit": "ng·h/mL"},
      {"measurement": "reduction of relative level of extracellular total α-syn", "setting": "[2]", "value": 50, "unit": "%"},
      {"measurement": "neuronal cell death (Nissl staining, injection site)", "setting": "[3]", "value": "did not induce neuronal cell death"},
      {"measurement": "increase in time on rotarod", "setting": "[3]; 5 times per week, 16 weeks", "value": 59, "unit": "%"},
      {"measurement": "number of GFAP+ signals in striata near endopiriform nucleus", "setting": "[3]; 9 weeks (45 treatments)", "value": "reduced the number of GFAP^+ signals"},
      {"measurement": "TH+ fiber level in ipsilateral striatum", "setting": "[3]; 16 weeks", "value": "reversed the TH^+ level to the extent of control group"},
      {"measurement": "number of p-α-syn+ aggregates in the contralateral striata", "setting": "[3]; 16 weeks", "value": "attenuated the number of p-α-syn^+ aggregates"},
      {"measurement": "peak grip force of fore- and hindlimbs", "setting": "[3]; 16 weeks", "value": "increased the peak grip force of fore- and hindlimbs to the extent of control group"},
      {"measurement": "number of p-α-syn+ aggregates in the injection sites", "setting": "[3]; 16 weeks, vs vehicle", "value": "reduced the number of p-α-syn^+ aggregates"},
      {"measurement": "concentration of lysosomal degradation of aggregates", "setting": "[4]; PD model cells (discussion)", "value": 10, "unit": "nM"},
      {"measurement": "concentration from which insoluble α-syn species are targeted", "setting": "[4]; primary rat cortex neurons, soluble monomeric form intact", "value": 10, "unit": "nM"}
    ]}
  ]
}
